Source: patent US20240376097A1, “BCL-2 Inhibitor” (BeiGene Ltd., priority 2020, published 2024)

What was measured:
[1] = system: recombinant human Bcl-2-G101V protein; assay: Bcl-2-G101V TR-FRET Assay; type: binding; settings: ratio of biochemical IC50 Bcl-2 G101V / Bcl-2 WT
Procedure, shortened: (§1)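 Ex337/em490 & 520 nm TR-FRET; % inhibition of Bcl-2-G101V–ligand interaction from 490:520 ratio vs. increasing compound conc.; IC50 by 4-parameter logistic fit.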

[2] = target: recombinant human Bcl-2-G101V protein (Homo sapiens (Human), UniProt P10415, G101V); assay: Bcl-2-G101V TR-FRET Assay; type: binding; settings: Bcl-2 G101V mutant, TR-FRET; read-out: Biochemical assay (IC50, nM) Bcl-2 G101V
Procedure, shortened: as §1

[3] = target: Recombinant human Bcl-2 protein (Homo sapiens (Human), UniProt P10415); assay: Bcl-2 TR-FRET Assay; type: binding; settings: Bcl-2 wild type, TR-FRET; read-out: Biochemical assay (IC50, nM) Bcl-2 WT
Procedure, shortened: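 0.05 nM Bcl-2 pre-incubated 0.5 h at room temperature with 10-point compound dilutions (top final 1, 0.1, 0.02 or 0.01 uM) in 20 mM potassium phosphate pH 7.5, 50 mM NaCl, 1 mM EDTA, 0.05% Tween-20, 0.01% BSA; FITC-Bak peptide (0.5 nM) and anti-6His Tb cryptate added, 1 h. IC50 from four-parameter logistic fit.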

[4] = system: BCL-2 G101V knock-in cell line H96 (derive from RS4;11); assay: Bcl 2-G101V Knock-In RS4;11 Cell Proliferation Assay; type: cell-based; settings: Homo sapiens, RS4;11 Bcl-2 G101V knock-in clone H96, 48 hrs, CellTiter-GLO, read-out: Cellular proliferation assay (IC50, nM) RS4
Experimental: Biological Example: Bcl 2-G101V Knock-In RS4;11 Cell Proliferation Assay
(1) RS4;11 H96 Bcl 2-G101V Knock-In Cell Line Generation
Briefly, RS4;11 BCL2-G101V knock-in cell pool was generated using Crisper/Cas9 gene editing system and the BCL2-G101V knock-in single clone H96 was picked from the knock-in cell pool and validated by WES (whole exome-sequencing) and RNA-seq.
The BCL-2 dependent acute lymphoblastic leukemia (ALL) cell line, RS4;11(ATCC, CRL-1873), was cultured in RPMI-1640 complete medium (RPMI-1640 medium, HEPES (Gibco, 22400-105) supplemented with 10% fetal bovine serum (FBS) (Gibco, 10099-1441), 100 unit/ml penicillin and 100 μg/ml streptomycin (Gibco, 15140122)) and maintained in a humidified chamber at 37° C. containing 5% CO2.
To obtain BCL2-G101V knock-in cell pool, RS4;11 was co-transfected with the Cas9-gRNA which also expressed GFP label, and the Donor gene which contained the BCL2-G101V mutant sequence. After 48 hrs of electroporation, the GFP positive cells were collected through FACSAriaIII cell sorting system. Cell pool was recovered for 3 days and then cultured under 2 nM ABT-199 stress for 4 weeks. […] Then cells were plated in 96 well U-plate with 1 cell/well for 10000 wells for single clone selection. After 3-5 weeks growing, clones were successively screened by PCR sequencing. And three BCL2-G101V knock-in clones: H96, H142 and H233, have been picked out.
Three clones were validated by genome DNA and cDNA(mRNA) PCR sequencing, and BCL-2, BCL-xL and MCL-1 expression using Western Blot. The H96 clone was also validated by WES (whole exome-sequencing) and RNA-seq.
(2) Bcl 2-G101V Knock-In RS4;11 Cell Proliferation Assay
The BCL-2 G101V knock-in cell line H96 (derive from RS4;11) were used to study the cellular potency of BCL-2 inhibitors. The cells were cultured in RPMI-1640 complete medium (RPMI-1640 medium, HEPES (Gibco, 22400-105) supplemented with 10% fetal bovine serum (FBS) (Gibco, 10099-1441), 100 unit/ml penicillin and 100 μg/ml streptomycin (Gibco, 15140122)) and maintained in a humidified chamber at 37° C. containing 5% CO2. Each compound was serially diluted with 1 μM or 10 μM as the maximum concentration. To test the apoptotic effect of the compounds, the cells were seeded at 50,000 in 90 μl per well in 96-well plates and treated with 10-point dilution series of each compound for 48 hrs at 37° C. Cell viability was assessed after the treatment using CellTiter-GLO luminescent assay (Promega) according to the manufacturer's recommendations. Briefly, 30 μl of CellTiter-GLO reagent was added into 100 μl of cell culture. Mixture was agitated on an orbital shaker for 5 min to ensure cell lysis followed by 7 min incubation at room temperature to allow development and stabilization of luminescent signals, which corresponded to the quantity of ATP and thus the quantity of metabolically active cells. Luminescent signals were measured using PHERAstar FS reader (BMG). Mean IC50 values were determined with GraphPad Prism software.

[5] = system: RS4;11 (BCL-2 dependent acute lymphoblastic leukemia cell line); assay: RS4;11 Cell Proliferation Assay; type: cell-based; settings: Homo sapiens, RS4-11, RS4;11 cells, read-out: Cellular proliferation assay (IC50, nM) RS4
Experimental: Biological Example: RS4;11 Cell Proliferation Assay
The BCL-2 dependent acute lymphoblastic leukemia (ALL) cell line, RS4;11, was used to study the cellular potency of BCL-2 inhibitors. The cells (ATCC, CRL-1873) were cultured in RPMI-1640 complete medium (RPMI-1640 medium, HEPES (Gibco, 22400-105) supplemented with 10% fetal bovine serum (FBS) (Gibco, 10099-1441), 100 unit/ml penicillin and 100 μg/ml streptomycin (Gibco, 15140122)) and maintained in a humidified chamber at 37° C. containing 5% CO2. Each compound was serially diluted with 1 μM as the maximum concentration. To test the apoptotic effect of the compounds, the cells were seeded at 50,000 in 180 μl per well in 96-well plates and treated with 10-point dilution series of each compound for 48 hrs at 37° C. Cell viability was assessed after the treatment using CellTiter-GLO luminescent assay (Promega) according to the manufacturer's recommendations. Briefly, 30 μl of CellTiter-GLO reagent was added into 200 μl of cell culture. Mixture was agitated on an orbital shaker for 5 min to ensure cell lysis followed by 7 min incubation at room temperature to allow development and stabilization of luminescent signals, which corresponded to the quantity of ATP and thus the quantity of metabolically active cells. Luminescent signals were measured using PHERAstar FS reader (BMG). Mean IC50 values were determined with GraphPad Prism software.

COc1ccc(CN2CCN(C3CC4(CCN(c5ccc(C(=O)NS(=O)(=O)c6ccc(NC[C@H]7CC[C@](C)(O)CC7)c([N+](=O)[O-])c6)c(Oc6cnc7[nH]cc(F)c7c6)c5)CC4)C3)C(c3ccccc3C(C)C)C2)cc1OC(F)F (stereo partly shown) [Example 159, 4-(2-(4-(3-(difluoromethoxy)-4-methoxybenzyl)-2-(2-isopropylphenyl)piperazin-1-yl)-7-azaspiro[3.5]nonan-7-yl)-2-((3-fluoro-1H-pyrrolo[2,3-b]pyridin-5-yl)oxy)-N-((4-((((1r,4r)-4-hydroxy-4-methylcyclohexyl)methyl)amino)-3-nitrophenyl)sulfonyl) benzamide]
Ratio of Bcl-2 G101V/WT [1]: 3.4 | IC50 [2]: 0.4 nM | IC50 [3]: 0.12 nM | IC50 [4]: 1.71 nM | IC50 [5]: 0.386 nM

COc1ccc(CN2CCN(C3CC4(CCN(c5ccc(C(=O)NS(=O)(=O)c6ccc(NC[C@H]7CC[C@](C)(O)CC7)c([N+](=O)[O-])c6)c(Oc6cnc7[nH]ccc7c6)c5)CC4)C3)C(c3ccccc3C(C)C)C2)cc1OC(F)F (stereo partly shown) [Example 169, 2-((1H-pyrrolo[2,3-b]pyridin-5-yl)oxy)-4-(2-(4-(3-(difluoromethoxy)-4-methoxybenzyl)-2-(2-isopropylphenyl)piperazin-1-yl)-7-azaspiro[3.5]nonan-7-yl)-N-((4-((((1r,4r)-4-hydroxy-4-methylcyclohexyl)methyl)amino)-3-nitrophenyl)sulfonyl)benzamide]
Ratio of Bcl-2 G101V/WT [1]: 3.9 | IC50 [2]: 2.4 nM | IC50 [3]: 0.62 nM | IC50 [4]: 1.5 nM | IC50 [5]: 0.49 nM

CC(C)c1ccccc1[C@H]1CN(Cc2cccc3c2OCCO3)CCN1C1CC2(C1)CN(c1ccc(C(=O)NS(=O)(=O)c3ccc(NC[C@H]4CC[C@](C)(O)CC4)c([N+](=O)[O-])c3)c(Oc3cnc4[nH]ccc4c3)c1)C2 [Example 149b, 2-((1H-pyrrolo[2,3-b]pyridin-5-yl)oxy)-4-(6-((S)-4-((2,3-dihydrobenzo[b][1,4]dioxin-5-yl)methyl)-2-(2-isopropylphenyl)piperazin-1-yl)-2-azaspiro[3.3]heptan-2-yl)-N-((4-((((1r,4r)-4-hydroxy-4-methylcyclohexyl)methyl)amino)-3-nitrophenyl)sulfonyl)benzamide]
Ratio of Bcl-2 G101V/WT [1]: 12 | IC50 [2]: 8.4 nM | IC50 [3]: 0.7 nM | IC50 [4]: 20.4 nM | IC50 [5]: 5.8 nM

COc1ccc(CN2CCN(C3CC4(CCN(c5ccc(C(=O)NS(=O)(=O)c6ccc(NCC7CCOCC7)c([N+](=O)[O-])c6)c(Oc6cnc7[nH]cc(F)c7c6)c5)CC4)C3)[C@H](c3ccccc3C(C)C)C2)cc1OC [Example 191, (R)-4-(2-(4-(3,4-dimethoxybenzyl)-2-(2-isopropylphenyl)piperazin-1-yl)-7-azaspiro[3.5]nonan-7-yl)-2-((3-fluoro-1H-pyrolo[2,3-b]pyridin-5-yl)oxy)-N-((3-nitro-4-(((tetrahydro-2H-pyran-4-yl)methyl)amino)phenyl)sulfonyl) benzamide]
Ratio of Bcl-2 G101V/WT [1]: 3.3 | IC50 [2]: 0.2 nM | IC50 [3]: 0.061 nM | IC50 [4]: 0.52 nM | IC50 [5]: 0.15 nM

COc1cc(CN2CCN(C3CC4(CCN(c5ccc(C(=O)NS(=O)(=O)c6ccc(NC[C@H]7CC[C@](C)(O)CC7)c([N+](=O)[O-])c6)c(Oc6cnc7[nH]cc(F)c7c6)c5)CC4)C3)[C@H](c3ccccc3C(C)C)C2)ccc1C(F)F [Example 287]
Ratio of Bcl-2 G101V/WT [1]: 2.6 | IC50 [2]: 2.3 nM | IC50 [3]: 0.87 nM | IC50 [4]: 0.55 nM | IC50 [5]: 0.16 nM

CCc1ccc(CN2CCN(C3CC4(CCN(c5ccc(C(=O)NS(=O)(=O)c6ccc(NC[C@H]7CC[C@](C)(O)CC7)c([N+](=O)[O-])c6)c(Oc6cnc7[nH]cc(F)c7c6)c5)CC4)C3)[C@H](c3ccccc3C(C)C)C2)cc1OC [Example 266, 4-(2-((R)-4-(4-ethyl-3-methoxybenzyl)-2-(2-isopropylphenyl)piperazin-1-yl)-7-azaspiro[3.5]nonan-7-yl)-2-((3-fluoro-1H-pyrrolo[2,3-b]pyridin-5-yl)oxy)-N-((4-((((1r,4r)-4-hydroxy-4-methylcyclohexyl)methyl)amino)-3-nitrophenyl)sulfonyl) benzamide]
Ratio of Bcl-2 G101V/WT [1]: 3 | IC50 [2]: 4.1 nM | IC50 [3]: 1.4 nM | IC50 [4]: 0.66 nM | IC50 [5]: 0.22 nM

COc1cc(CN2CCN(C3CC4(CCN(c5ccc(C(=O)NS(=O)(=O)c6ccc(NC[C@H]7CC[C@](C)(O)CC7)c([N+](=O)[O-])c6)c(Oc6cnc7[nH]ccc7c6)c5)CC4)C3)[C@H](c3ccccc3C(C)C)C2)ccc1C(F)(F)F [Example 277, 2-((1H-pyrrolo[2,3-b]pyridin-5-yl)oxy)-N-((4-((((1r,4r)-4-hydroxy-4-methylcyclohexyl)methyl)amino)-3-nitrophenyl)sulfonyl)-4-(2-((R)-2-(2-isopropylphenyl)-4-(3-methoxy-4-(trifluoromethyl)benzyl)piperazin-1-yl)-7azaspiro [3.5]nonan-7-yl)benzamide]
Ratio of Bcl-2 G101V/WT [1]: 2.2 | IC50 [2]: 3.2 nM | IC50 [3]: 1.4 nM | IC50 [4]: 1.9 nM | IC50 [5]: 0.22 nM

[2H]C([2H])(c1ccc(OC)c(OC)c1)N1CCN(C2CC3(CCN(c4ccc(C(=O)NS(=O)(=O)c5ccc(NC[C@H]6CC[C@](C)(O)CC6)c([N+](=O)[O-])c5)c(Oc5cnc6[nH]ccc6c5)c4)CC3)C2)C(c2ccccc2C(C)C)C1 (stereo partly shown) [Example 193]
Ratio of Bcl-2 G101V/WT [1]: 3.4 | IC50 [2]: 0.23 nM | IC50 [3]: 0.068 nM | IC50 [4]: 0.8 nM | IC50 [5]: 0.26 nM
